“And” between values parts separate entries of the source, which are not always exact repeats. Identical values can stand only once.
Columns and labels:
[1] = tested on: tobacco plants expressing Wheat HPPD; assay: Glasshouse spray test, wheat HPPD transgenic tobacco; format: in vivo; conditions: 100 g, individual T0 lines
From the text: Transgenic lines of tobacco, soyabean and corn etc. can be engineered to express various heterologous HPPDs derived from, for example Avena (SEQ ID #26), Wheat (SEQ ID #27), Pseudomonas fluorescens (SEQ ID # 25) and Shewanella colwelliana (SEQ ID #28) as, for example, described in WO 02/46387.
Single copy events amongst the T1 plant lines are identified by their 3:1 segregation ratio (wrt kanamycin and or herbicide) and by quantitative RT-PCR. Seed from the thus selected T1 tobacco (var Samsun) lines are sown in 3 inch diameter pots containing 50% peat, 50% John Innes soil no 3. After growth to the 3 leaf stage, plants are sprayed, as described above, in order to test for herbicide tolerance relative to like-treated non-transgenic tobacco plants. […]
Exactly as described in example 5 of WO 02/46387 the wheat HPPD gene sequence (Embl DD064495) is cloned behind an Arabidopsis Rubisco small subunit (SSU) promoter and in front of a nos gene terminator to produce an SSU Wheat HPPD nos expression cassette' which is cloned into a binary vector and transformed into tobacco to produce a population of 30-50 transgenic events.

weeds = assay: Glasshouse weed control by HST/HPPD (mesotrione) mixtures, pre-emergence; format: in vivo; conditions: for colby: Colby synergy score; for % Damage at 14 DAA, 1 g ai ha^−1 mesotrione / % Damage at 14 DAA, no-mesotrione: N = 3
Procedure: Weed seeds are planted out in trays containing suitable soil (for example 50% peat, 50% John Innes soil no 3) and grown in the glass house conditions under 24-27° C. day; 18-21° C. night and approximately a 14 h (or longer in UK summer) photoperiod. Humidity is ˜65% and light levels up to 2000 μmol/m^2 at bench level. Trays are sprayed with test chemicals dissolved in water with 0.2-0.25% X-77 surfactant and sprayed from a boom on a suitable track sprayer moving at about 2 mph in a suitable track sprayer (for example a DeVries spray chamber with the nozzle about 2 inches from the plant tops). Spray volume is suitably 500-1000 l/ha. Sprays are carried out both pre-emergence and over small plants at about 7-12 d post-emergence
Plants are assessed 14 DAT and herbicidal damage is scored on a scale from 0 to 100%. The HST inhibitor compound 2.30 (designated compound A in table 16 and 17), haloxydine (compound 1.1) and compound 2.13 (designated compound AE in tables 16 and 17) are sprayed at rates between 0 and 500 g/ha.

[2] = ALOMY, 16 g/ha + mesotrione 1 g ai/ha
[3] = ALOMY, 31 g/ha + mesotrione 1 g ai/ha
[4] = ALOMY, 63 g/ha + mesotrione 1 g ai/ha
[5] = ALOMY, 125 g/ha + mesotrione 1 g ai/ha
[6] = ALOMY, 250 g/ha + mesotrione 1 g ai/ha
[7] = ALOMY, 500 g/ha + mesotrione 1 g ai/ha
[8] = AMARE, 16 g/ha + mesotrione 1 g ai/ha
[9] = AMARE, 31 g/ha + mesotrione 1 g ai/ha
[10] = AMARE, 63 g/ha + mesotrione 1 g ai/ha
[11] = AMARE, 125 g/ha + mesotrione 1 g ai/ha
[12] = AMARE, 250 g/ha + mesotrione 1 g ai/ha
[13] = AMARE, 500 g/ha + mesotrione 1 g ai/ha
[14] = ECHCG, 16 g/ha + mesotrione 1 g ai/ha
[15] = ECHCG, 31 g/ha + mesotrione 1 g ai/ha
[16] = ECHCG, 63 g/ha + mesotrione 1 g ai/ha
[17] = ECHCG, 125 g/ha + mesotrione 1 g ai/ha
[18] = ECHCG, 250 g/ha + mesotrione 1 g ai/ha

Compound: CC(C)C(=O)Oc1c(-c2c(F)ccc(Br)c2Cl)c(=O)n(CC(F)F)c2nccnc12 [Compound 2.30]
- blch (% bleaching at the meristem relative to control plants) ([1]; 7 DAT): 35% (5×) and 40% (5×) and 50% (2×) and 60% (2×) and 30% (6×) and 70% (2×) and 10% (2×)
- ht (% height reduction relative to control plants) ([1]; 7 DAT): 50% (5×) and 60% (3×) and 90% (3×) and 70% (7×) and 40% (2×) and 30% (2×) and 20% (2×)
- blch (% bleaching at the meristem relative to control plants) ([1]; 21 DAT): 0% (15×) and 90% (2×) and 70% (5×) and 50% (2×) and 65% and 45%
- ht (% height reduction relative to control plants) ([1]; 21 DAT): 45% (2×) and 85% (3×) and 80% (2×) and 30% and 55% (3×) and 50% (5×) and 40% (3×) and 60% (2×) and 75% and 70% (2×) and 95% and 90%
- colby (weeds; [2]): 0%
- % Damage at 14 DAA, 1 g ai ha^−1 mesotrione (weeds; [2]): 0%
- % Damage at 14 DAA, no-mesotrione (weeds; ALOMY, 16 g/ha): 0%
- colby (weeds; [3]): 0%
- % Damage at 14 DAA, 1 g ai ha^−1 mesotrione (weeds; [3]): 0%
- % Damage at 14 DAA, no-mesotrione (weeds; ALOMY, 31 g/ha): 0%
- colby (weeds; [4]): 0%
- % Damage at 14 DAA, 1 g ai ha^−1 mesotrione (weeds; [4]): 0%
- % Damage at 14 DAA, no-mesotrione (weeds; ALOMY, 63 g/ha): 0%
- colby (weeds; [5]): 0%
- % Damage at 14 DAA, 1 g ai ha^−1 mesotrione (weeds; [5]): 0%
- % Damage at 14 DAA, no-mesotrione (weeds; ALOMY, 125 g/ha): 0%
- colby (weeds; [6]): −2%
- % Damage at 14 DAA, 1 g ai ha^−1 mesotrione (weeds; [6]): 0%
- % Damage at 14 DAA, no-mesotrione (weeds; ALOMY, 250 g/ha): 2%
- colby (weeds; [7]): 10%
- % Damage at 14 DAA, 1 g ai ha^−1 mesotrione (weeds; [7]): 20%
- % Damage at 14 DAA, no-mesotrione (weeds; ALOMY, 500 g/ha): 10%
- colby (weeds; [8]): −2%
- % Damage at 14 DAA, 1 g ai ha^−1 mesotrione (weeds; [8]): 0%
- % Damage at 14 DAA, no-mesotrione (weeds; AMARE, 16 g/ha): 0%
- colby (weeds; [9]): −2%
- % Damage at 14 DAA, 1 g ai ha^−1 mesotrione (weeds; [9]): 0%
- % Damage at 14 DAA, no-mesotrione (weeds; AMARE, 31 g/ha): 0%
- colby (weeds; [10]): 8%
- % Damage at 14 DAA, 1 g ai ha^−1 mesotrione (weeds; [10]): 10%
- % Damage at 14 DAA, no-mesotrione (weeds; AMARE, 63 g/ha): 0%
- colby (weeds; [11]): 29%
- % Damage at 14 DAA, 1 g ai ha^−1 mesotrione (weeds; [11]): 40%
- % Damage at 14 DAA, no-mesotrione (weeds; AMARE, 125 g/ha): 10%
- colby (weeds; [12]): 9%
- % Damage at 14 DAA, 1 g ai ha^−1 mesotrione (weeds; [12]): 47%
- % Damage at 14 DAA, no-mesotrione (weeds; AMARE, 250 g/ha): 37%
- colby (weeds; [13]): 16%
- % Damage at 14 DAA, 1 g ai ha^−1 mesotrione (weeds; [13]): 90%
- % Damage at 14 DAA, no-mesotrione (weeds; AMARE, 500 g/ha): 73%
- colby (weeds; [14]): 0%
- % Damage at 14 DAA, 1 g ai ha^−1 mesotrione (weeds; [14]): 0%
- % Damage at 14 DAA, no-mesotrione (weeds; ECHCG, 16 g/ha): 0%
- colby (weeds; [15]): 0%
- % Damage at 14 DAA, 1 g ai ha^−1 mesotrione (weeds; [15]): 0%
- % Damage at 14 DAA, no-mesotrione (weeds; ECHCG, 31 g/ha): 0%
- colby (weeds; [16]): 0%
- % Damage at 14 DAA, 1 g ai ha^−1 mesotrione (weeds; [16]): 0%
- % Damage at 14 DAA, no-mesotrione (weeds; ECHCG, 63 g/ha): 0%
- colby (weeds; [17]): −2%
- % Damage at 14 DAA, 1 g ai ha^−1 mesotrione (weeds; [17]): 0%
- % Damage at 14 DAA, no-mesotrione (weeds; ECHCG, 125 g/ha): 2%
- colby (weeds; [18]): 0%
- % Damage at 14 DAA, 1 g ai ha^−1 mesotrione (weeds; [18]): 5%
- % Damage at 14 DAA, no-mesotrione (weeds; ECHCG, 250 g/ha): 5%
- colby (weeds; ECHCG, 500 g/ha + mesotrione 1 g ai/ha): 8%
